Results from ChEMBL document CHEMBL1759980, “Aza-annulation on the 16-dehydropregnenolone, via tandem intermolecular aldol process and intramolecular Michael addition” (Bioorg Med Chem Lett, 2011).

Tests used:
Dipeptidyl peptidase 4 [1] = biological target: T1, Dipeptidyl peptidase 4 (Homo sapiens, UniProt P27487); assay: Inhibition of human DPP-4 assessed as cleavage of substrate using H-Gly-Pro-pNA chromogenic substrate at 10 uM after 10 mins by double beam spectrophotometer
Target sequence in this assay (P27487 whole entry, looked up): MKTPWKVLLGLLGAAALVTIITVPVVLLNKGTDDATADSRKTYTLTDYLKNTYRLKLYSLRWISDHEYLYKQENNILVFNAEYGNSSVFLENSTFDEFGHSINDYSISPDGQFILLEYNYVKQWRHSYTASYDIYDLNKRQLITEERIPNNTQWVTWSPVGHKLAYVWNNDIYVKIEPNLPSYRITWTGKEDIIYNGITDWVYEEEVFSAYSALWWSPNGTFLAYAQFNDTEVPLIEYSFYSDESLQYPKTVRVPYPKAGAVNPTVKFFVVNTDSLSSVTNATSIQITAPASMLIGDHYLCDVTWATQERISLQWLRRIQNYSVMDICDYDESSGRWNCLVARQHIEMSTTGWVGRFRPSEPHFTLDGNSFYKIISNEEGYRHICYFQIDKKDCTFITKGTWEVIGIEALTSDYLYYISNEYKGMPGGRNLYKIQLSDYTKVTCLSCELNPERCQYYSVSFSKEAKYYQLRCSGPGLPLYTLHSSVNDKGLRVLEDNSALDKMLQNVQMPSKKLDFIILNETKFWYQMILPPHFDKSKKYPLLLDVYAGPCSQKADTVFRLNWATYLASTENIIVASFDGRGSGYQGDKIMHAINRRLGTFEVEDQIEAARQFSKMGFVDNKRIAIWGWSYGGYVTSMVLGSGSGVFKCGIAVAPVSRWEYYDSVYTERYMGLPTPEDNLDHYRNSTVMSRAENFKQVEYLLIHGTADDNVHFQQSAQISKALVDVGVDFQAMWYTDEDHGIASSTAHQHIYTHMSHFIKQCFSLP

Dipeptidyl peptidase 4 [2] = biological target: T1, Dipeptidyl peptidase 4; assay: Inhibition of human DPP-4 assessed as cleavage of substrate using H-Gly-Pro-pNA chromogenic substrate after 10 mins by double beam spectrophotometer
Target sequence in this assay (P27487 whole entry): as the sequence (P27487 whole entry, looked up) above

For `CC(=O)[C@H]1C(NCc2ccccc2)C[C@H]2[C@@H]3CC=C4C[C@@H](O)CC[C@]4(C)[C@H]3CC[C@]12C` (stereo not given in full), which inhibition (Dipeptidyl peptidase 4 [1]) is on record?
The inhibition was 28.4%.

What about the IC50 (Dipeptidyl peptidase 4 [2]) of the same compound?
Its IC50 is 21.3 µM.

Which results are given for `CCCN1C(c2ccc(C(C)C)cc2)CC(=O)[C@H]2C1C[C@H]1[C@@H]3CC=C4C[C@@H](O)CC[C@]4(C)[C@H]3CC[C@]21C` (stereo not given in full)?
inhibition (Dipeptidyl peptidase 4 [1]): 19.1%; IC50 (Dipeptidyl peptidase 4 [2]): 29.1 µM

Which inhibition (Dipeptidyl peptidase 4 [1]) does the source give for `CC(=O)O[C@H]1CC[C@@]2(C)C(=CC[C@@H]3[C@@H]2CC[C@]2(C)C(C(C)=O)=CC[C@@H]32)C1` here?
The inhibition was 17.3%.

What about the IC50 (Dipeptidyl peptidase 4 [2]) of the same compound?
The IC50 was 35.6 µM.

Which inhibition (Dipeptidyl peptidase 4 [1]) does the source give for `CCCN1C(c2ccc(OC)cc2)CC(=O)[C@H]2C1C[C@H]1[C@@H]3CC=C4C[C@@H](O)CC[C@]4(C)[C@H]3CC[C@]21C` (stereo not given in full) here?
The inhibition was 20.4%.

What about the IC50 (Dipeptidyl peptidase 4 [2]) of the same compound?
The IC50 was 32.7 µM.

Which results are given for `COc1ccc(/C=C/C(=O)C2=CC[C@H]3[C@@H]4CC=C5C[C@@H](O)CC[C@]5(C)[C@H]4CC[C@]23C)cc1OC`?
inhibition (Dipeptidyl peptidase 4 [1]): 24.1%; IC50 (Dipeptidyl peptidase 4 [2]): 26.2 µM
